What was measured:
[1] = target: Serine/threonine-protein kinase 4, STK4/MST1 (Homo sapiens) (UniProt Q13043); experiment: Inhibition of MST1 (unknown origin)
[2] = target: 3-phosphoinositide-dependent protein kinase 1, PDPK1 (Homo sapiens) (UniProt O15530); experiment: Inhibition of PDK1 (unknown origin)
Chain of 3-phosphoinositide-dependent protein kinase 1, PDPK1 (Homo sapiens) (O15530 whole entry, looked up): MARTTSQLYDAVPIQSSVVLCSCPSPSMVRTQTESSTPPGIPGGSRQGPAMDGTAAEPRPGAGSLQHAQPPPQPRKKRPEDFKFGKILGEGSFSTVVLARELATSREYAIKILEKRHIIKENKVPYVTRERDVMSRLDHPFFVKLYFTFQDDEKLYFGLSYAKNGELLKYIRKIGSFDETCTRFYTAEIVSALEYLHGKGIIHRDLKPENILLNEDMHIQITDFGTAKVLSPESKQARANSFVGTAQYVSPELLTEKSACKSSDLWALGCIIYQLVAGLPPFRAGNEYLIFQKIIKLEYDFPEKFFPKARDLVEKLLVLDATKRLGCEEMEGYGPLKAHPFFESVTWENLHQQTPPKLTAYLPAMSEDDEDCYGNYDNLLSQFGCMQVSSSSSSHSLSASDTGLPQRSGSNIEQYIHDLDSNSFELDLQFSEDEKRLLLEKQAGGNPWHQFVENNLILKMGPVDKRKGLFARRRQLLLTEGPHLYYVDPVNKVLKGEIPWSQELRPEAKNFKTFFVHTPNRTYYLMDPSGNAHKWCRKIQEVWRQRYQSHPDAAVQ

Chain of Serine/threonine-protein kinase 4, STK4/MST1 (Homo sapiens) (Q13043 whole entry, looked up): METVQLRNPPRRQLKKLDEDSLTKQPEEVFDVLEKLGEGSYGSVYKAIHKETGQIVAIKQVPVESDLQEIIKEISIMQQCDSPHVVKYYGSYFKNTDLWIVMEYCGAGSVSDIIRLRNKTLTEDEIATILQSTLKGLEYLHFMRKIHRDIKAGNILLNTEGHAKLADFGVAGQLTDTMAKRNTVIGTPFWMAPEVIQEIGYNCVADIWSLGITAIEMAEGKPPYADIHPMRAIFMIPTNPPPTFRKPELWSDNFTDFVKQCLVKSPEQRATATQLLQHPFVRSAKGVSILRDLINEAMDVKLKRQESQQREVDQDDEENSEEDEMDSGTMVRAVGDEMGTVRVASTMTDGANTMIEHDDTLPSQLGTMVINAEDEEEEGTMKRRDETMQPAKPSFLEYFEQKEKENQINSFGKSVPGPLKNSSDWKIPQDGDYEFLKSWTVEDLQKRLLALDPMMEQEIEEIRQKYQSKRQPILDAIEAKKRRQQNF

In the case of O=C(c1ccc(F)c(F)c1Nc1ccc(I)cc1F)N1CC(O)([C@@H]2CCCCN2)C1, the IC50 [1] is reported as > 10 µM and the IC50 [2] is reported as > 10 µM.
